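In this assay, cells in 96-well plates receive the compound at five concentrations for 48 hours. Endpoints are linearly interpolated between the surrounding concentrations. Definition used: TGI = concentration required for complete inhibition of growth.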
Columns and labels:
Assay in all cases: NCI-60 cell line screen, 48 h
[1] = tested on: BT-549 breast
[2] = tested on: HCT-15 colon
[3] = tested on: HOP-92 NSCLC
[4] = tested on: K-562 leukemia
[5] = tested on: LOX IMVI melanoma
[6] = tested on: M14 melanoma
[7] = tested on: MALME-3M melanoma
[8] = tested on: NCI-H226 lung
[9] = tested on: NCI-H460 lung
[10] = tested on: NCI-H522 lung
[11] = tested on: OVCAR-3 ovarian
[12] = tested on: OVCAR-4 ovarian
[13] = tested on: OVCAR-8 ovarian
[14] = tested on: SK-MEL-2 melanoma
[15] = tested on: SK-MEL-5 melanoma
[16] = tested on: SK-OV-3 ovarian
[17] = tested on: SW-620 colon
[18] = tested on: U251 CNS
[19] = tested on: UO-31 renal
[20] = tested on: HOP-62 NSCLC

Compound | TGI [1] | TGI [2] | TGI [3] | TGI [4] | TGI [5] | TGI [6] | TGI [7] | TGI [8] | TGI [9] | TGI [10] | TGI [11] | TGI [12] | TGI [13] | TGI [14] | TGI [15] | TGI [16] | TGI [17] | TGI [18] | TGI [19] | TGI [20]
CSc1c(C#N)c(O)n(-c2ccc(Cl)cc2)c(=O)c1C#N | > 100 µM | > 100 µM | 98 µM | > 100 µM | > 100 µM | > 100 µM | > 100 µM | > 100 µM | > 100 µM | > 100 µM | > 100 µM | > 100 µM | > 100 µM | > 100 µM | > 100 µM | > 100 µM | > 100 µM | > 100 µM | > 100 µM | –
Brc1ccc(-c2ccc(-c3ccc(-c4ccc(Br)s4)s3)s2)s1 | > 100 µM | > 100 µM | > 100 µM | > 100 µM | > 100 µM | > 100 µM | – | > 100 µM | > 100 µM | – | > 100 µM | > 100 µM | > 100 µM | – | > 100 µM | > 100 µM | > 100 µM | > 100 µM | > 100 µM | > 100 µM
COC(OC)C1(c2ccccc2)Oc2ccccc2C1=O (stereo not drawn) | > 100 µM | > 100 µM | > 100 µM | > 100 µM | > 100 µM | > 100 µM | > 100 µM | > 100 µM | > 100 µM | > 100 µM | > 100 µM | > 100 µM | > 100 µM | > 100 µM | > 100 µM | > 100 µM | > 100 µM | > 100 µM | – | > 100 µM
Cc1ccc2c(=O)c(-c3nnsn3)c[nH]c2n1 | > 100 µM | > 100 µM | – | > 100 µM | > 100 µM | > 100 µM | > 100 µM | > 100 µM | > 100 µM | > 100 µM | > 100 µM | > 100 µM | > 100 µM | > 100 µM | > 100 µM | – | > 100 µM | > 100 µM | > 100 µM | > 100 µM
O=C(c1ccsc1)c1cc2c(s1)C(=O)c1ccsc1C2=O | 0.198 µM | 0.305 µM | 1.25 µM | – | – | 0.247 µM | 0.0845 µM | 1.11 µM | 0.367 µM | 0.323 µM | 0.392 µM | 0.335 µM | 0.424 µM | 0.982 µM | 0.104 µM | 3.09 µM | 0.341 µM | 0.34 µM | 0.25 µM | 0.431 µM
NS(=O)(=O)c1cc(S(N)(=O)=O)c(NC(=O)Nc2ccc(Cl)c(Cl)c2)c(Cl)c1Cl | > 100 µM | > 100 µM | > 100 µM | > 100 µM | > 100 µM | > 100 µM | – | > 100 µM | > 100 µM | > 100 µM | > 100 µM | > 100 µM | > 100 µM | > 100 µM | > 100 µM | > 100 µM | > 100 µM | > 100 µM | > 100 µM | –
N#Cc1cc2c(n(C3OC(CO)C(O)C(O)C3O)c1=S)CCCCC2 (stereo not drawn) | > 100 µM | > 100 µM | > 100 µM | > 100 µM | > 100 µM | > 100 µM | > 100 µM | > 100 µM | > 100 µM | > 100 µM | > 100 µM | > 100 µM | > 100 µM | > 100 µM | > 100 µM | – | – | > 100 µM | > 100 µM | > 100 µM
NC(=S)SC1=NNC2(C(=O)N1)c1ccccc1-c1ccccc12 | > 10 µM | > 10 µM | > 10 µM | – | > 10 µM | > 10 µM | > 10 µM | > 10 µM | > 10 µM | > 10 µM | – | > 10 µM | > 10 µM | – | > 10 µM | > 10 µM | > 10 µM | – | > 10 µM | > 10 µM
CCOc1cc(NC(C)=O)ccc1C(=O)N/N=C/c1ccco1 | > 100 µM | > 100 µM | > 100 µM | > 100 µM | > 100 µM | – | > 100 µM | > 100 µM | > 100 µM | > 100 µM | > 100 µM | > 100 µM | > 100 µM | > 100 µM | > 100 µM | > 100 µM | > 100 µM | – | – | > 100 µM
COc1cc(S(=O)(=O)N/N=C/C=C/c2ccccc2)c(OC)cc1NC(C)=O | > 100 µM | > 100 µM | > 100 µM | – | > 100 µM | > 100 µM | > 100 µM | – | – | > 100 µM | > 100 µM | > 100 µM | > 100 µM | > 100 µM | 33.3 µM | > 100 µM | > 100 µM | – | > 100 µM | > 100 µM
CCOC(=O)N/N=C/C1=NN(C(=O)OCC)S(=O)C1C (stereo not drawn) | > 100 µM | > 100 µM | > 100 µM | > 100 µM | – | > 100 µM | > 100 µM | > 100 µM | > 100 µM | > 100 µM | > 100 µM | > 100 µM | > 100 µM | > 100 µM | > 100 µM | > 100 µM | > 100 µM | > 100 µM | > 100 µM | > 100 µM
C/C(=N\N=C(\N)OB(F)F)c1ccccn1 | > 100 µM | > 100 µM | 85.7 µM | > 100 µM | > 100 µM | > 100 µM | > 100 µM | > 100 µM | > 100 µM | > 100 µM | > 100 µM | > 100 µM | > 100 µM | > 100 µM | > 100 µM | – | > 100 µM | > 100 µM | > 100 µM | > 100 µM
CC(C)N(CCCNc1c2ccccc2nc2cccc([N+](=O)[O-])c12)C(C)C | < 0.0442 µM | 0.012 µM | < 0.01 µM | 62.3 µM | 0.0637 µM | < 0.01 µM | – | 0.325 µM | < 0.0445 µM | – | – | 0.103 µM | < 0.0467 µM | 0.24 µM | < 0.0156 µM | – | < 0.0397 µM | < 0.0365 µM | – | –

From PubChem BioAssay (NCI)
